From patent US7135548B2, “Modified α-MSH peptides and derivatives thereof” (Zengen, Inc., priority 2002, dated 2006)
Entries after “also recorded” stand apart in the source; their conditions may differ. Square brackets hold non-standard residues; d marks the D form. Ends that are not written are not given here. dNal = D-naphthylalanine (D-Nal)

Tests used:
[1] = tested on: Candida albicans; test: Inhibition of Candida albicans colony formation (viability estimated from colonies formed); format: cell-based; conditions: for antimicrobial activity toward Candida albicans (result in words): Table 1 / FIG. 1; for % Inhib. (inhibitory effect on Candida Albicans): clinical isolates, 1×10^6/ml in HBSS, two hours at 37° C. with peptide, colonies counted after 48 hours, peptide concentration for the table not given (range tested 10^−15 to 10^−4 M)
Experimental: Clinical isolates of C. albicans were also obtained from the collection of the Department of Microbiology, Ospedale Maggiore di Milano. Cultures of C. albicans were maintained on Sabouraud's agar slants and periodically transferred to Sabouraud's agar plates and incubated for 48 hours at 28° C. To prepare stationary growth-phase yeast, a colony may be taken from the agar plate, transferred into 30 ml of Sabouraud-dextrose broth, and incubated for 72 hours at 32° C. Cells were centrifuged at 1000×g for ten minutes, and the pellet may be washed twice with distilled water. Cells were counted and suspended in Hank's balanced salt solution (“HBSS”) to the desired concentration. Viability, determined by exclusion of 0.01% methylene blue, remained greater than 98%.
At 1×10^6/ml in HBSS, these fungi were incubated in the presence or absence of modified α-MSH peptides at concentrations ranging from 10^−15 to 10^−4 M for two hours at 37° C. Cells were then washed in cold distilled water and diluted with HBSS to a concentration of 100 organisms/ml. One-milliliter aliquots were then dispensed on blood agar plates and incubated for 48 hours at 37° C. The organism's viability may be estimated from the number of colonies formed.

[2] = tested on: Candida albicans; conditions: comparison value, see U.S. patent application Ser. No. 09/535,066; cited from earlier work

| Substance | antimicrobial activity toward Candida albicans (result in words) [1] | % Inhib. (inhibitory effect on Candida Albicans) [1] | inhibition of C. albicans colonies by naturally occurring α-MSH [2] |
| --- | --- | --- | --- |
| His-DNal-Arg-Trp-Gly-Lys-Phe-Val (H[dNal]RWGKFV-OH) [SEQ. ID. NO. 36] | potent antimicrobial activity; also recorded: remarkable anticandidacidal activity | 99.7% |  |
| His-DNal-Arg-Trp-Gly-Lys-DAla-Val (H[dNal]RWGK[dA]V-OH) [SEQ. ID. NO. 27] |  | 69.2% |  |
| His-Phe-Arg-Trp-Gly-Lys-DAsp-Val (HFRWGK[dD]V-OH; N-terminus assumed; SMILES CC(C)[C@H](NC(=O)[C@@H](CC(=O)O)NC(=O)[C@H](CCCCN)NC(=O)CNC(=O)[C@H](Cc1c[nH]c2ccccc12)NC(=O)[C@H](CCCNC(=N)N)NC(=O)[C@H](Cc1ccccc1)NC(=O)[C@@H](N)Cc1c[nH]cn1)C(=O)O) [SEQ. ID. NO. 39] |  | 15.7% |  |
| His-Phe-Arg-Trp-Gly-Lys-Pro-DVal (HFRWGKP[dV]-OH; N-terminus assumed; SMILES CC(C)[C@@H](NC(=O)[C@@H]1CCCN1C(=O)[C@H](CCCCN)NC(=O)CNC(=O)[C@H](Cc1c[nH]c2ccccc12)NC(=O)[C@H](CCCNC(=N)N)NC(=O)[C@H](Cc1ccccc1)NC(=O)[C@@H](N)Cc1c[nH]cn1)C(=O)O) [SEQ. ID. NO. 17] |  | 82.5% |  |
| HFRWGKAV [SEQ. ID. NO. 19] |  | 12.8% |  |
| His-DNal-Arg-Trp-Gly-Lys-Lys-Val (H[dNal]RWGKKV-OH) [SEQ. ID. NO. 45] |  | 85.4% |  |
| His-DNal-Arg-Trp-Gly-Lys-Ser-Val (H[dNal]RWGKSV-OH) [SEQ. ID. NO. 31] | No substantial modification in activity | 73.9% |  |
| HFRWGAPV [SEQ. ID. NO. 18] |  | 26.2% |  |
| HFRWGKSV [SEQ. ID. NO. 30] | No substantial modification in activity | 32.3% |  |
| His-DNal-Arg-Trp-Gly-Lys-Ala-Val (H[dNal]RWGKAV-OH) [SEQ. ID. NO. 26] |  | 28.0% |  |
| H[dF]RWGK[dF]V [SEQ. ID. NO. 35] |  | 82.0% |  |
| His-DNal-Arg-Trp-Gly-Lys-DPhe-Val (H[dNal]RWGK[dF]V-OH) [SEQ. ID. NO. 37] | potent antimicrobial activity | 57.6% |  |
| His-DNal-Arg-Trp-Gly-Lys-Glu-Val (H[dNal]RWGKEV-OH) [SEQ. ID. NO. 43] | decreased activity | 32.3% |  |
| His-DPhe-Arg-Trp-Gly-Lys-Pro-Val (H[dF]RWGKPV-OH; N-terminus assumed; SMILES CC(C)[C@H](NC(=O)[C@@H]1CCCN1C(=O)[C@H](CCCCN)NC(=O)CNC(=O)[C@H](Cc1c[nH]c2ccccc12)NC(=O)[C@H](CCCNC(=N)N)NC(=O)[C@@H](Cc1ccccc1)NC(=O)[C@@H](N)Cc1c[nH]cn1)C(=O)O) [SEQ. ID. NO. 21] |  | 79.4% |  |
| His-DPhe-Arg-Trp-Gly-Lys-Phe-Val (H[dF]RWGKFV-OH; N-terminus assumed; SMILES CC(C)[C@H](NC(=O)[C@H](Cc1ccccc1)NC(=O)[C@H](CCCCN)NC(=O)CNC(=O)[C@H](Cc1c[nH]c2ccccc12)NC(=O)[C@H](CCCNC(=N)N)NC(=O)[C@@H](Cc1ccccc1)NC(=O)[C@@H](N)Cc1c[nH]cn1)C(=O)O) [SEQ. ID. NO. 34] |  | 89.6% |  |
| SYSMEHFRWGKPV [α-MSH, naturally occurring 13-amino acid peptide, α-melanocyte-stimulating hormone] |  |  | less than 80% |
| His-Phe-Arg-Trp-Gly-Lys-DPhe-Val (HFRWGK[dF]V-OH; N-terminus assumed; SMILES CC(C)[C@H](NC(=O)[C@@H](Cc1ccccc1)NC(=O)[C@H](CCCCN)NC(=O)CNC(=O)[C@H](Cc1c[nH]c2ccccc12)NC(=O)[C@H](CCCNC(=N)N)NC(=O)[C@H](Cc1ccccc1)NC(=O)[C@@H](N)Cc1c[nH]cn1)C(=O)O) [SEQ. ID. NO. 33] |  | 97.5% |  |
| HFRWGKPL [SEQ. ID. NO. 24] |  | 86.6% |  |
| HFRWGKGV [SEQ. ID. NO. 28] |  | 41.8% |  |
| His-DNal-Arg-Trp-Gly-Lys-Asp-Val (H[dNal]RWGKDV-OH) [SEQ. ID. NO. 41] | decreased activity | 16.8% |  |
| HFRWGKFV [SEQ. ID. NO. 32] |  | 90.0% |  |
| HFRWGKDV [SEQ. ID. NO. 38] |  | 5.9% |  |
| His-DNal-Arg-Trp-Gly-Lys-Pro-Val (H[dNal]RWGKPV-OH) [SEQ. ID. NO. 22] | increased activity | 95.3% |  |
| HFRWGKPA [SEQ. ID. NO. 20] |  | 68.4% |  |
| His-DNal-Arg-Trp-Gly-Lys-Gly-Val (H[dNal]RWGKGV-OH) [SEQ. ID. NO. 29] |  | 36.2% |  |
| HFR[dW]GKPV [SEQ. ID. NO. 23] |  | 81.9% |  |
| His-DPhe-Arg-Trp-Gly-Lys-Asp-Val (H[dF]RWGKDV-OH; N-terminus assumed; SMILES CC(C)[C@H](NC(=O)[C@H](CC(=O)O)NC(=O)[C@H](CCCCN)NC(=O)CNC(=O)[C@H](Cc1c[nH]c2ccccc12)NC(=O)[C@H](CCCNC(=N)N)NC(=O)[C@@H](Cc1ccccc1)NC(=O)[C@@H](N)Cc1c[nH]cn1)C(=O)O) [SEQ. ID. NO. 40] |  | 3.7% |  |
| HFRWGKKV [SEQ. ID. NO. 44] |  | 41.0% |  |
| His-Phe-Arg-Trp-Gly-Lys-DAla-Val (HFRWGK[dA]V-OH; N-terminus assumed; SMILES CC(C)[C@H](NC(=O)[C@@H](C)NC(=O)[C@H](CCCCN)NC(=O)CNC(=O)[C@H](Cc1c[nH]c2ccccc12)NC(=O)[C@H](CCCNC(=N)N)NC(=O)[C@H](Cc1ccccc1)NC(=O)[C@@H](N)Cc1c[nH]cn1)C(=O)O) [SEQ. ID. NO. 25] |  | 43.7% |  |
| HFRWGKEV [SEQ. ID. NO. 42] |  | 11.2% |  |
